Experimental data published in the NIST ThermoML archive (doi:10.1021/je9006629).
± gives the expanded uncertainty stated by the source.

What was measured:
[1] = refractive index (Na D-line) (dimensionless); xn = mol fraction of the nth substance listed; details: 293.15 K, 101 kPa, Liquid, Standard Abbe refractometry
[2] = Liquid; for Normal boiling temperature: Distillation

CCCCO [butan-1-ol] + CCCCCCC
[1]
Details	refractive index
x1 = 0.1121	1.3889 ± 0.0007
x1 = 0.1897	1.3898 ± 0.0007
x1 = 0.2845	1.3909 ± 0.0007
x1 = 0.3707	1.3919 ± 0.0007
x1 = 0.4655	1.393 ± 0.0007
x1 = 0.5	1.3934 ± 0.0007
x1 = 0.5862	1.3944 ± 0.0007
x1 = 0.681	1.3955 ± 0.0007
x1 = 0.7586	1.3964 ± 0.0007
x1 = 0.8276	1.3972 ± 0.0007
x1 = 0.9224	1.3983 ± 0.0007
x1 = 1	1.3992 ± 0.0007

CCCCCCC [heptane] + CCCCO
Details	refractive index
[1], x2 = 0	1.3876 ± 0.0007

CCCCCO [pentan-1-ol]
[2]
Details	vapor or sublimation pressure [kPa]
379.35 K	31.2 ± 0.7
382.4 K	35.3 ± 0.7
385.65 K	40 ± 0.7
390.75 K	49.2 ± 0.8
393.2 K	53.3 ± 0.8
394.7 K	56.9 ± 0.8
400.05 K	69.3 ± 0.9
404.6 K	81.3 ± 0.9
408.15 K	91.3 ± 1
409 K	94.5 ± 1
411.35 K	101.9 ± 1.1
414.65 K	113.3 ± 1.1

Details	Normal boiling temperature [°C]
[2]	138.0 ± 0.14

CCCCO [butan-1-ol]
[2]
Details	vapor or sublimation pressure [kPa]
356.35 K	25.3 ± 0.6
359.45 K	29.3 ± 0.6
362.95 K	33.5 ± 0.7
368.6 K	42.8 ± 0.7
373.45 K	52.5 ± 0.8
373.85 K	53.3 ± 0.8
377.3 K	61.2 ± 0.8
381.9 K	72.8 ± 0.9
386.05 K	84.9 ± 1
387.75 K	91.3 ± 1
391.95 K	105.3 ± 1.1
395.8 K	120.1 ± 1.2

Details	Normal boiling temperature [°C]
[2]	117.80 ± 0.14

CCCCCO [pentan-1-ol] + CCCCCCC
[1]
Details	refractive index
x1 = 0.0755	1.3893 ± 0.0007
x1 = 0.1601	1.3912 ± 0.0007
x1 = 0.2844	1.394 ± 0.0007
x1 = 0.3511	1.3955 ± 0.0007
x1 = 0.4622	1.398 ± 0.0007
x1 = 0.5821	1.4007 ± 0.0007
x1 = 0.6845	1.403 ± 0.0007
x1 = 0.7732	1.4051 ± 0.0007
x1 = 0.8978	1.4078 ± 0.0007
x1 = 1	1.4101 ± 0.0007

CCCCCCC [heptane] + CCCCCO
Details	refractive index
[1], x2 = 0	1.3876 ± 0.0007

CCCCCCC [heptane]
[2]
Details	vapor or sublimation pressure [kPa]
332.9 K	27.1 ± 0.6
335.2 K	29.9 ± 0.7
336.85 K	32.3 ± 0.7
340.55 K	36.9 ± 0.7
343.75 K	41.3 ± 0.7
348.55 K	48.9 ± 0.8
351.45 K	53.3 ± 0.8
351.5 K	53.3 ± 0.8
352.35 K	55.3 ± 0.8
357.25 K	65.3 ± 0.8
363.15 K	78.7 ± 0.9
368.45 K	91.3 ± 1
368.55 K	92.7 ± 1
371.35 K	100.8 ± 1
374 K	108.8 ± 1.1

Details	Normal boiling temperature [°C]
[2]	98.50 ± 0.14
